Read-outs that look alike come from different tables or passages of the source. Marks after values point to notes of the source that are not given here.
What was measured:
[1] = test system: Hy-Line W-36 White Leghorn hens; details: 4,000 mcg/kg body wt i.m. 3 d from day 15
Description: Experiment 1. […] While acknowledging that injecting individual hens is commercially impractical (Webster, 2003), nevertheless an initial study was needed to establish the efficacy of T4 when it is delivered directly into the hens in precisely measured doses. The photoperiod was 17 hours of light per day (0330 hours to 2030 hours).

[2] = test system: Hy-Line W-36 White Leghorn hens; details: for Ovary Weight per hen / Oviduct Weight per hen: day 34
Excerpt: Experiment 3. […] The photoperiod serves as the primary environmental signal that regulates reproductive function in many avian species. Increasing the photoperiod promotes maturation of the gonads and reproductive tract, whereas reducing the photoperiod causes the gonads and reproductive tract to regress and molting to occur.

[3] = daily injections of 150 mcg/kg body weight; cited from earlier work
[4] = test system: turkey breeder hens; test: Experiment 7: molting of turkey breeder hens with dietary L-thyroxine, porcine thyroid powder or TIC with or without protease; type: in vivo; details: for Ending (10 d) Body Wt / Liver Weight / Ovary Weight / Oviduct Weight: turkey breeder hens, 6 per treatment
Excerpt: Experiment 7. Molting of Turkey Breeder Hens with Dietary L-Thyroxine, Porcine Thyroid Powder, or Thyroactive Iodinated Casein With or Without Protease. Turkey breeder hens were molted with various dietary thyroxine treatments at Diamond K Research, […]. (Jun. 20-Jul. 1, 2005).

[5] = test system: 96-week old broiler breeder cockerels; details: 2 or 5 ppm T4 in diet for 4 weeks; cited from earlier work
[6] = 10 mg T4/kg diet fed for 10 days
[7] = 25 mg T4/kg diet fed for 10 days
[8] = 40 mg T4/kg diet fed for 10 days

## N[C@@H](Cc1cc(I)c(Oc2cc(I)c(O)c(I)c2)c(I)c1)C(=O)O [L-thyroxine, 3,5,3′,5′-tetraiodo-L-thyronine]
[1]; day 16
  Hen-day egg production: 87.5%
[1]; day 18
  Hen-day egg production: 100.0%
[1]; day 20
  Hen-day egg production: 87.5%
[1]; day 22
  Hen-day egg production: 25.0%
[1]; day 24
  Hen-day egg production: 0.0%
[1]; day 26
  Hen-day egg production: 0.0%
[1]; day 28
  Hen-day egg production: 0.0%
[1]; day 30
  Hen-day egg production: 0.0%
[2]; 20 mg T4/kg groups, either chamber
  Hens molted: None of the hens
[2]; 20 mg T4/kg, 17 hr light
  Time to significantly reduced egg production: ≤ 8 days
[2]; 20 mg/kg of feed 12 d from day 13, 8 hr light, Day 12 (pre-molt)
  Body weight (BW): 1492 g
[2]; 20 mg/kg of feed 12 d from day 13, 8 hr light, Day 22
  Body weight change (% BWC): −12.8%
[2]; 20 mg/kg of feed 12 d from day 13, 8 hr light, Day 22 (end of molt)
  Body weight (BW): 1301 g
[2]; 20 mg/kg of feed 12 d from day 13, 8 hr light, Day 34
  Body weight change (% BWC): −10.7%
[2]; 20 mg/kg of feed 12 d from day 13, 8 hr light, Day 34 (final)
  Body weight (BW): 1332 g
[2]; 20 mg/kg of feed 12 d from day 13, 17 hr light, Day 12 (pre-molt)
  Body weight (BW): 1572 g
[2]; 20 mg/kg of feed 12 d from day 13, 17 hr light, Day 22
  Body weight change (% BWC): −13.3%
[2]; 20 mg/kg of feed 12 d from day 13, 17 hr light, Day 22 (end of molt)
  Body weight (BW): 1363 g
[2]; 20 mg/kg of feed 12 d from day 13, 17 hr light, Day 34
  Body weight change (% BWC): −7.6%
[2]; 20 mg/kg of feed 12 d from day 13, 17 hr light, Day 34 (final)
  Body weight (BW): 1453 g
[2]; 20 mg/kg of feed, 8 hr light
  Ovary Weight per hen: 7.91 g
  Oviduct Weight per hen: 18.64 g
[2]; 20 mg/kg of feed, 17 hr light
  Ovary Weight per hen: 31.41 g
  Oviduct Weight per hen: 43.81 g
[2]; 40 mg T4/kg, 8 hr light, 7/12
  Hens molted fully: 58%
[2]; 40 mg T4/kg, 17 hr light
  Hens molted fully: 100%
  Time to significantly reduced egg production: ≤ 6 days
[2]; 40 mg/kg of feed 12 d from day 13, 8 hr light, Day 12 (pre-molt)
  Body weight (BW): 1488 g
[2]; 40 mg/kg of feed 12 d from day 13, 8 hr light, Day 22
  Body weight change (% BWC): −17.9%
[2]; 40 mg/kg of feed 12 d from day 13, 8 hr light, Day 22 (end of molt)
  Body weight (BW): 1222 g
[2]; 40 mg/kg of feed 12 d from day 13, 8 hr light, Day 34
  Body weight change (% BWC): −12.6%
[2]; 40 mg/kg of feed 12 d from day 13, 8 hr light, Day 34 (final)
  Body weight (BW): 1300 g
[2]; 40 mg/kg of feed 12 d from day 13, 17 hr light, Day 12 (pre-molt)
  Body weight (BW): 1436 g
[2]; 40 mg/kg of feed 12 d from day 13, 17 hr light, Day 22
  Body weight change (% BWC): −18.0%
[2]; 40 mg/kg of feed 12 d from day 13, 17 hr light, Day 22 (end of molt)
  Body weight (BW): 1178 g
[2]; 40 mg/kg of feed 12 d from day 13, 17 hr light, Day 34
  Body weight change (% BWC): −14.8%
[2]; 40 mg/kg of feed 12 d from day 13, 17 hr light, Day 34 (final)
  Body weight (BW): 1224 g
[2]; 40 mg/kg of feed, 8 hr light
  Ovary Weight per hen: 9.32 g
  Oviduct Weight per hen: 14.25 g
[2]; 40 mg/kg of feed, 17 hr light
  Ovary Weight per hen: 3.82 g
  Oviduct Weight per hen: 8.03 g
[2]; 20 and 40 mg T4/kg, 12 days
  Mortality: No mortality occurred
[2]; 20 and 40 mg T4/kg, 8 hr light
  Time to significantly reduced egg production: ≤ 4 days
[3]
  Decrease in fiber diameter: 7.8%
  Increase in mohair length growth rate: 15%
[4]; [6]
  Ending (10 d) Body Wt: 23.03 lb
  Liver Weight: 143.0^bc g
  Ovary Weight: 159.1^a g
  Oviduct Weight: 124.1^a g
[4]; [7]
  Ending (10 d) Body Wt: 25.11 lb
  Liver Weight: 144.6^b g
  Ovary Weight: 160.5^a g
  Oviduct Weight: 134.7^a g
[4]; [8]
  Ending (10 d) Body Wt: 22.99 lb
  Liver Weight: 141.9^bc g
  Ovary Weight: 129.1^a g
  Oviduct Weight: 138.7^a g
[4]; 10, 20, or 40 mg T4/kg diet, 10 days
  Regressing reproductive tracts: not as effective as porcine thyroid powder
[5]
  Week at which daily sperm output returned to control values: 11 week
  Week at which plasma testosterone levels returned to control values: 5 week

From patent publication US20060008512A1, “Composition and methods for improved animal performance” (priority 2004, published 2006)
